Blank lines part the entries; values can stand above or below the compound they belong to.
Tests used:
[1] = biological target: T1, Solute carrier family 15 member 1 (Homo sapiens, UniProt P46059); assay: Ratio of substrate activity of FSA to compound at PepT1 in human Caco2 cells assessed as apparent permeability form apical to basolateral side at 2 mM in presence of Gly-Gln after 1 hr by HPLC analysis; conditions: caco-2, 1 h, 2000 µM
T1 sequence (P46059 whole entry): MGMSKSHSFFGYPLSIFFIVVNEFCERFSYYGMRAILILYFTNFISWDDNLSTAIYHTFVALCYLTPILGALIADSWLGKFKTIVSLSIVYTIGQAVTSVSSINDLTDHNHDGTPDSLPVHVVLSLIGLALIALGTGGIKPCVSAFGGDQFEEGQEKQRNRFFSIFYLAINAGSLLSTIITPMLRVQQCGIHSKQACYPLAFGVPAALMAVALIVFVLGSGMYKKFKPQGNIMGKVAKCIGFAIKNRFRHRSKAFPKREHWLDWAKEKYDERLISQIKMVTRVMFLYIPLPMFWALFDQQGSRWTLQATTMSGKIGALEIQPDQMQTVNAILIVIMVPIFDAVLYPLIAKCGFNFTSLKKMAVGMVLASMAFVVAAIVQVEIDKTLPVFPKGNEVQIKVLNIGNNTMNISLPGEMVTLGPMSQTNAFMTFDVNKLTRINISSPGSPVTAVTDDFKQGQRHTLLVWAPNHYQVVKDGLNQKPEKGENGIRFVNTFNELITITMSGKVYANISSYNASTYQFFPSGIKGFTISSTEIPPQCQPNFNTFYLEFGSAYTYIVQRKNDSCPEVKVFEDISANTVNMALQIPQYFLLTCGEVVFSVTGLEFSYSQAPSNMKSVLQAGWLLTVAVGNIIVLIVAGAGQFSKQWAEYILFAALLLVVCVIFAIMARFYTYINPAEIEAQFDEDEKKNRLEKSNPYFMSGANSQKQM

PepT1 = biological target: T2, PepT1 (Homo sapiens, UniProt P46059); assay: Substrate activity at PepT1 in human Caco2 cells assessed as apparent permeability form apical to basolateral side at 2 mM in presence of Gly-Gln after 1 hr by HPLC analysis; conditions: Caco-2, with Gly-Gln
T2 sequence (P46059 whole entry): T1 sequence (P46059 whole entry)

Caco-2 = assay: Ratio of apparent permeability of FSA to compound in human Caco2 cells from apical to basolateral side at 2 mM after 1 hr by HPLC analysis; conditions: caco-2, 1 h, 2000 µM
[2] = biological target: T3, Solute carrier family 15 member 1 (Oryctolagus cuniculus, UniProt P36836); assay: Binding affinity to rabbit PepT1 expressed in Xenopus laevis oocytes assessed as inhibition of [3H]-D-Phe-L-Gln uptake by Michaelis-Menten kinetics analysis; assay type: ADME, cell-based
T3 sequence (P36836 whole entry): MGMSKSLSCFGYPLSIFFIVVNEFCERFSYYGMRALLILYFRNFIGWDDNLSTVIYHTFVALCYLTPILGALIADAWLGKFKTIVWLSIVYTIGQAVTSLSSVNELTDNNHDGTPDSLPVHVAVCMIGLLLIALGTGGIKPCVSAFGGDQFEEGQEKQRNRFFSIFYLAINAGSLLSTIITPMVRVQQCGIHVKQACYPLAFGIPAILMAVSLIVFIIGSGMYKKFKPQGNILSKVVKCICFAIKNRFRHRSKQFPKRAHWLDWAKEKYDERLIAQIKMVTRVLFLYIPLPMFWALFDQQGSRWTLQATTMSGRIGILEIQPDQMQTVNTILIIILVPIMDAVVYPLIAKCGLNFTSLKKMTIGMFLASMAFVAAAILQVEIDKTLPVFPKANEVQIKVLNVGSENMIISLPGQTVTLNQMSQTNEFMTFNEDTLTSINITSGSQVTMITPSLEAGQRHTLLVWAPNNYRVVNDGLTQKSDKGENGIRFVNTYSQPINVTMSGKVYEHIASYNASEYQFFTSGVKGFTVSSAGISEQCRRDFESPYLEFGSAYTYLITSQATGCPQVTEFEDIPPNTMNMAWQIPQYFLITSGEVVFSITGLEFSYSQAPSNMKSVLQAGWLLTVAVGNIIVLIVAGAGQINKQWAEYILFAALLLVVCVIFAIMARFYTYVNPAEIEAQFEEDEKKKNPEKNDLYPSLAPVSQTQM

[3] = Apparent permeability of the compound in human Caco2 cells from apical to basolateral side at 2 mM after 1 hr by HPLC analysis; conditions: Caco-2
Rattus norvegicus [4] = assay: Bioavailability in Sprague-Dawley rat at 6 mg/kg, po by LC-MS/MS analysis; conditions: in vivo
Rattus norvegicus [5] = assay: AUC in Sprague-Dawley rat assessed as ibuprofen release level at 10 mg/kg, po by LC-MS/MS analysis; conditions: in vivo
Rattus norvegicus [6] = assay: Relative bioavailability in Sprague-Dawley rat assessed as ibuprofen release level at 10 mg/kg, po by LC-MS/MS analysis; conditions: in vivo
Rattus norvegicus [7] = assay: Cmax in Sprague-Dawley rat assessed as ibuprofen release level at 10 mg/kg, po by LC-MS/MS analysis; conditions: in vivo
Rattus norvegicus [8] = assay: Tmax in Sprague-Dawley rat assessed as ibuprofen release level at 10 mg/kg, po by LC-MS/MS analysis; conditions: in vivo
[9] = Half life in rat liver homogenate at 0.5 mM after 24 hrs by HPLC analysis; assay type: ADME, tissue-based
[10] = Stability of the compound in pH 5.5 buffer; assay type: physicochemical

SMILES: CC(C)Cc1ccc(C(C)C(=O)O)cc1 (configuration not stated) [IBUPROFEN]
F (Rattus norvegicus [4]): 100%

SMILES: C[C@H](NC(=O)[C@@H](N)Cc1ccccc1)C(N)=S
Papp A→B at 1 h, 2000 µM (PepT1): 1.9 ×10⁻⁶ cm/s

SMILES: CC(C)Cc1ccc([C@@H](C)C(=O)OC[C@H](NC(=S)[C@H](C)N)C(=O)O)cc1
Ratio [1]: 1.07
Papp A→B at 1 h, 2000 µM (PepT1): 2.1 ×10⁻⁶ cm/s
AUC (Rattus norvegicus [5]): 700 ng·h/mL
F (Rattus norvegicus [6]): 2.8%
Cmax (Rattus norvegicus [7]): 200 ng/mL
Tmax (Rattus norvegicus [8]): 3.2 h
Ratio (Caco-2): 1.29
half-life at 500 µM [9]: 17.9 h

SMILES: C[C@H](N)C(=S)N[C@@H](COC(=O)CC1(CN)CCCCC1)C(=O)O
Ratio [1]: 0.69
Papp A→B at 1 h, 2000 µM (PepT1): 0.4 ×10⁻⁶ cm/s
Ratio (Caco-2): 0.46

SMILES: CC(C)c1cccc(C(C)C)c1OC(=O)C[C@H](NC(=S)[C@H](C)N)C(=O)O
Ratio [1]: 0.89
Papp A→B at 1 h, 2000 µM (PepT1): 0.5 ×10⁻⁶ cm/s
Ratio (Caco-2): 0.41
Papp A→B at 1 h, 2000 µM [3]: 0.5 ×10⁻⁶ cm/s
half-life at 500 µM [9]: 7.3 h

Second part, the compound after the results:

Ratio [1]: 1.3
Papp A→B at 1 h, 2000 µM (PepT1): 4.4 ×10⁻⁶ cm/s
Ratio (Caco-2): 1.94
Ki ([2]; read-out: Ki): 80 µM
Papp A→B at 1 h, 2000 µM [3]: 9.7 ×10⁻⁶ cm/s
SMILES: COc1ccc2cc(CC/C(C)=N/OCCOC(=O)C[C@H](NC(=S)[C@H](C)N)C(=O)O)ccc2c1

Stability [10]: Unstable
Ki [2]: Nd(Unstable)
SMILES: C[C@H](N)C(=S)N[C@@H](CC(=O)OCCOCn1cnc2c(=O)[nH]c(N)nc21)C(=O)O

Stability [10]: Unstable
Ki [2]: Nd(Unstable)
SMILES: CC(=O)Oc1ccccc1C(=O)OCCOCCOCCOC(=O)C[C@H](NC(=S)[C@H](C)N)C(=O)O

Source: ChEMBL document CHEMBL4152331, “Thiodipeptides targeting the intestinal oligopeptide transporter as a general approach to improving oral drug delivery” (Eur J Med Chem, 2018)
